Laboratory results taken from patent US20230065953A1, “NOVEL HETEROARYL-TRIAZOLE COMPOUNDS AS PESTICIDES” (Bayer Aktiengesellschaft, priority 2019, published 2023).

Assays:
Type in all cases: in vivo
[1] = test system: Rhipicephalus microplus larvae (strain Parkhurst, resistant against synthetic pyrethroids); assay: Rhipicephalus (Boophilus) microplus in-vitro contact test, larval cattle tick; settings: 5 μg/cm^2 (=500 g/ha), after 48 hours, read-out: efficacy (larvae dead or moribund)
Outline: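 Larvae exposed by contact to a dried acetone film on glass; a 900 ppm solution yields 5 μg/cm^2. Scoring after 48 h at 27° C. counts dead plus moribund larvae as efficacy.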

[2] = test system: adult engorged female ticks (Rhipicephalus microplus); assay: Rhipicephalus (Boophilus) microplus injection test; settings: 168 h, 4 μg/animal, egg deposition after 7 days, read-out: efficacy (infertile eggs)
Outline: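 Five adult engorged female ticks each injected into the abdomen with 1 μL of compound in DMSO, then kept in a climate chamber. Fertile egg deposition assessed after 7 days, with unclear eggs held until hatching around 42 days; efficacy 100% means all eggs infertile, 0% all fertile.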

[3] = test system: adult cat fleas (Ctenocephalides felis); assay: Ctenocephalides felis in-vitro contact test, adult cat flea; settings: 5 μg/cm^2 (=500 g/ha), after 48 hours
Outline: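 After 48 h of room-temperature exposure in tubes whose walls carried dried compound residue (5 μg/cm^2, from 900 ppm acetone solution), adult cat fleas (5-10 per tube) were heat-challenged at 45-50° C up to 5 min. Fleas unable to climb away were counted dead or moribund, expressed as % efficacy.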

[4] = test system: adult unfed cat fleas (Ctenocephalides felis); assay: Ctenocephalides felis oral test; settings: 48 h
Outline: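 About 20 adult unfed fleas fed through parafilm on cattle blood containing compound (DMSO stock diluted in blood), blood held at 37 °C and fleas at room temperature. Mortality (%) scored after 2 days.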

[5] = test system: adult brown dog ticks (Rhipicephalus sanguineus); assay: Rhipicephalus sanguineus in-vitro contact test with adult brown dog ticks; settings: 5 μg/cm^2 (=500 g/ha), after 48 hours, read-out: efficacy (ticks dead or moribund)
Description: Rhipicephalus sanguineus—In-Vitro Contact Tests with Adult Brown Dog Ticks
9 mg compound is solved in 1 mL acetone and diluted with acetone to the desired concentration. 250 μL of the test solution is filled in 25 mL glass test tubes and homogeneously distributed on the inner walls by rotation and tilting on a shaking device (2 h at 30 rpm). With a compound concentration of 900 ppm, an inner surface of 44.7 cm^2 and a homogeneous distribution, a dose of 5 μg/cm^2 is achieved.
After the solvent has evaporated, each test tube is filled with 5-10 adult brown dog ticks (Rhipicephalus sanguineus), closed with a perforated lid and incubated in a lying position at room temperature and relative humidity. After 48 hours efficacy is determined. The ticks are patted on the ground of the tubes and are incubated on a heating plate at 45-50° C. for at most 5 minutes. Immotile or uncoordinated moving ticks, which are not able to escape the heat by climbing upwards, are marked as dead or moribund.
An efficacy of 100% means all ticks are dead or moribund; 0% means no ticks are dead or moribund.

[6] = test system: larvae of the banded cucumber beetle (Diabrotica balteata); assay: Diabrotica balteata spray test; settings: 168 h, 100 g/ha (=32 μg/well), wheat seeds, after 7 days, read-out: efficacy (seedling growth)
Outline: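 Efficacy in % was read 7 days after infesting with 10-20 larvae per unit. Before infestation, 1-day-germinated wheat seedlings (5 per well) were sprayed with the active ingredient, formulated in acetone and dimethylformamide plus emulsifier and diluted with water containing emulsifier.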

[7] = test system: brown planthopper (Nilaparvata lugens); assay: Nilaparvata lugens spray test; settings: 96 h, rice plants, after 4 days
Description: Nilaparvata lugens—Spray Test • Solvent: 78.0 parts by weight of acetone • 1.5 parts by weight of dimethylformamide • Emulsifier: alkylarylpolyglycol ether
To produce a suitable preparation of active compound, 1 part by weight of active compound is mixed with the stated amount of solvents and is diluted with water, containing an emulsifier concentration of 1000 ppm, to the desired concentration. Further test concentrations are prepared by dilution with emulsifier containing water.
Rice plants (Oryza sativa) are sprayed with a preparation of the active ingredient of the desired concentration and the plants are infested with the brown planthopper (Nilaparvata lugens).
After 4 days mortality in % is determined. 100% means all planthoppers have been killed and 0% means none of the planthoppers have been killed.

[8] = test system: fall armyworm larvae (Spodoptera frugiperda); assay: Spodoptera frugiperda spray test (maize leaf sections); settings: 168 h
Outline: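 Percent kill of Spodoptera frugiperda caterpillars read at day 7. Larvae placed on dried Zea mays leaf pieces previously sprayed with test preparation, made from acetone plus DMF and diluted with emulsifier-containing water (1000 ppm).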

[9] = test system: green peach aphid (Myzus persicae); assay: Myzus persicae oral test; settings: 120 h
Outline: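 Compound was dissolved in acetone, diluted with water and mixed into IPL41 insect medium with sugar under a parafilm seal. A mixed aphid population fed through the parafilm, and mortality (%) was scored after 5 days.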

[10] = test system: green peach aphid (Myzus persicae); assay: Myzus persicae spray test; settings: foliar, 120 h, Chinese cabbage leaf disks, after 5 days
Outline: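 Percent mortality read 5 days after spraying, where 100% is total kill and 0% none. The spray contained compound in acetone plus dimethylformamide, diluted with 1000 ppm emulsifier water. It was applied to Brassica pekinensis leaf disks carrying mixed-instar green peach aphids.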

[11] = test system: adult mosquitoes Aedes aegypti strain MONHEIM; assay: Aedes aegypti test (AEDSAE surface treatment & contact assay); settings: 24 hours after contact, read-out: efficacy (mortality); for mortality at 20 mg/m2: surface concentration 20 mg/m^2, 30 min exposure
Description: Aedes aegypti test (AEDSAE surface treatment & contact assay) • Solvent: Aceton+2000 ppm rapeseed oil methyl ester (RME)
In order to produce a sufficient, active ingredient containing solution it is necessary to solve the test compound in the solvent-mix (acetone at 2 mg/ml/RME 2000 ppm). This solution is pipetted onto a glazed tile and after evaporation of the acetone, adult mosquitoes of the species Aedes aegypti strain MONHEIM are placed onto the dried surface. The exposure time is 30 minutes.
(§1) Mortality in percent (%) is determined 24 hours after contact of the insects to the treated surface. 100% mortality means that all tested insects are dead, whereas 0% means that no insect died.

[12] = test system: adult flies Musca domestica strain WHO-N; assay: Musca domestica test (MUSCDO surface treatment & contact assay); settings: 24 hours after contact, read-out: efficacy (mortality); for mortality at 4 mg/m2: surface concentration 4 mg/m^2, 30 min exposure; for mortality at 20 mg/m2: surface concentration 20 mg/m^2, 30 min exposure
Description: Musca domestica Test (MUSCDO Surface Treatment & Contact Assay) • Solvent: Aceton+2000 ppm rapeseed oil methyl ester (RME)
In order to produce a sufficient, active ingredient containing solution it is necessary to solve the test compound in the solvent-mix (acetone at 2 mg/ml/RME 2000 ppm). This solution is pipetted onto a glazed tile and after evaporation of the acetone, adult flies of the species Musca domestica strain WHO-N are placed onto the dried surface. The exposure time is 30 minutes.
as §1

[13] = test system: larvae of the southern green stink bug (Nezara viridula); assay: Nezara viridula spray test; settings: in Hordeum vulgare, 96 h
Outline: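 Mortality (%) of stink bug larvae on treated barley (Hordeum vulgare) was scored 4 days after infestation. Test solutions came from an acetone/DMF concentrate diluted with water containing 1000 ppm emulsifier and were sprayed onto plants before larvae were added.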

SMILES: Cc1nc([C@H](C)NC(=O)c2cc(C(F)(F)F)cc(C(F)(F)F)c2)n(-c2ncc(C(=O)N(C)C(C)C)s2)n1 [I-10]
- pest or weed control at 5 µg/cm2 [1]: 100%
- pest or weed control at 0.004 mg [2]: 100%
- efficacy (fleas dead or moribund) [3]: 90%
- mortality at 100 ppm [4]: 100%
- pest or weed control at 5 µg/cm2, 500 g/ha [5]: 100%
- pest or weed control at 32 µg/disc, 100 g/ha [6]: 100%
- mortality at 100 g/ha ([7]; 100 g/ha): 90%
- mortality at 100 g/ha [8]: 100%

SMILES: Cc1nc([C@H](C)NC(=O)c2cc(Cl)cc(C(F)F)c2)n(-c2ncc(C#N)s2)n1 [I-18]
- pest or weed control at 5 µg/cm2 [1]: 100%
- pest or weed control at 0.004 mg [2]: 100%
- mortality at 100 ppm [4]: 100%
- pest or weed control at 5 µg/cm2, 500 g/ha [5]: 100%
- pest or weed control at 32 µg/disc, 100 g/ha [6]: 100%
- mortality at 4 ppm [9]: 100%
- mortality at 100 g/ha [10]: 100%
- mortality at 100 g/ha [8]: 100%
- mortality at 4 mg/m2 ([11]; surface concentration 4 mg/m^2, 30 min exposure): 80 to 100%
- mortality at 20 mg/m2 [11]: 80 to 100%
- mortality at 4 mg/m2 [12]: 90 to 100%
- mortality at 20 mg/m2 [12]: 80 to 100%

SMILES: C[C@H](NC(=O)c1cc(C(F)(F)F)cc(S(C)(=O)=O)c1)c1ncnn1-c1ncc(C(=O)N(C)C)s1 [I-65]
- efficacy (fleas dead or moribund) [3]: 100%
- pest or weed control at 32 µg/disc, 100 g/ha [6]: 100%
- mortality at 100 g/ha [10]: 100%
- mortality at 100 g/ha [13]: 100%
- mortality at 500 g/ha [13]: 100%
- mortality at 500 g/ha [7]: 90%
- mortality at 100 g/ha [8]: 100%

SMILES: C[C@H](NC(=O)c1cc(OC(F)(F)F)cc(C2CC2)c1)c1ncnn1-c1ncc(C(=O)N(C)C)s1 [I-89]
- pest or weed control at 5 µg/cm2 [1]: 100%
- efficacy (fleas dead or moribund) [3]: 100%
- pest or weed control at 5 µg/cm2, 500 g/ha [5]: 80%
- pest or weed control at 32 µg/disc, 100 g/ha [6]: 100%
- mortality at 100 g/ha [10]: 100%
- mortality at 500 g/ha [13]: 100%
- mortality at 500 g/ha [7]: 100%
- mortality at 100 g/ha [8]: 100%
- mortality at 20 mg/m2 [11]: 80 to 100%
- mortality at 20 mg/m2 [12]: 80 to 100%

SMILES: Cc1nc([C@H](C)NC(=O)c2cc(OC(F)(F)F)cc(C3CC3)c2)n(-c2ncc(C#N)s2)n1 [I-91]
- pest or weed control at 5 µg/cm2 [1]: 100%
- pest or weed control at 5 µg/cm2, 500 g/ha [5]: 100%
- pest or weed control at 32 µg/disc, 100 g/ha [6]: 100%
- mortality at 100 g/ha [10]: 90%
- mortality at 500 g/ha [13]: 100%
- mortality at 500 g/ha [7]: 100%
- mortality at 100 g/ha [8]: 100%
- mortality at 20 mg/m2 [11]: 80 to 100%
- mortality at 4 mg/m2 [12]: 90 to 100%
- mortality at 20 mg/m2 [12]: 80 to 100%

SMILES: CNC(=O)c1cnc(-n2nc(C)nc2[C@H](C)NC(=O)c2cc(C(F)(F)F)cc(C(F)(F)F)c2)s1 [I-102]
- pest or weed control at 5 µg/cm2 [1]: 100%
- efficacy (fleas dead or moribund) [3]: 100%
- pest or weed control at 32 µg/disc, 100 g/ha [6]: 100%
- mortality at 100 g/ha [10]: 90%
- mortality at 500 g/ha [13]: 100%
- mortality at 500 g/ha [7]: 100%
- mortality at 100 g/ha [8]: 100%

SMILES: CNC(=O)c1cnc(-n2ncnc2[C@H](C)NC(=O)c2cc(OC(F)(F)F)cc(S(C)(=O)=O)c2)s1 [I-113]
- pest or weed control at 32 µg/disc, 100 g/ha [6]: 100%
- mortality at 100 g/ha [10]: 100%
- mortality at 100 g/ha [13]: 100%
- mortality at 500 g/ha [13]: 100%
- mortality at 500 g/ha [7]: 100%

SMILES: C[C@H](NC(=O)c1cc(OC(F)F)cc(OC(F)F)c1)c1ncnn1-c1ncc(C(=O)N(C)C)s1 [I-119]
- pest or weed control at 32 µg/disc, 100 g/ha [6]: 100%
- mortality at 100 g/ha [10]: 90%
- mortality at 100 g/ha [13]: 100%
- mortality at 500 g/ha [13]: 100%
- mortality at 500 g/ha [7]: 100%
- mortality at 100 g/ha [8]: 100%

SMILES: C[C@H](NC(=O)c1cc(OC(F)(F)F)cc(S(C)(=O)=O)c1)c1ncnn1-c1ncc(C(=O)N(C)C)s1 [I-120]
- mortality at 100 g/ha [10]: 90%
- mortality at 100 g/ha [13]: 100%
- mortality at 500 g/ha [13]: 100%
- mortality at 500 g/ha [7]: 100%
- mortality at 100 g/ha [8]: 100%

SMILES: Cc1nc([C@H](C)NC(=O)c2cc(OC(F)(F)F)cc(C3CC3)c2)n(-c2ncc(C(=O)N(C)CC3CC3)s2)n1 [I-128]
- pest or weed control at 32 µg/disc, 100 g/ha [6]: 100%
- mortality at 100 g/ha [10]: 90%
- mortality at 100 g/ha [13]: 90%
- mortality at 500 g/ha [13]: 100%
- mortality at 500 g/ha [7]: 100%
- mortality at 100 g/ha [8]: 100%

SMILES: CCN(C)C(=O)c1cnc(-n2nc(C)nc2[C@H](C)NC(=O)c2cc(OC(F)(F)F)cc(C3CC3)c2)s1 [I-129]
- pest or weed control at 32 µg/disc, 100 g/ha [6]: 100%
- mortality at 100 g/ha [10]: 100%
- mortality at 500 g/ha [7]: 100%
- mortality at 100 g/ha [8]: 100%

SMILES: C[C@H](NC(=O)c1cc(S(=O)(=O)C(F)(F)F)cc(S(=O)(=O)C(F)(F)F)c1)c1ncnn1-c1ncc(C#N)s1 [I-138]
- pest or weed control at 32 µg/disc, 100 g/ha [6]: 100%
- mortality at 500 g/ha [7]: 100%
- mortality at 100 g/ha [8]: 100%

SMILES: Cc1nc([C@H](C)NC(=O)c2cc(C(F)(F)F)cc(S(C)(=O)=O)c2)n(-c2ncc(C#N)s2)n1 [I-165]
- pest or weed control at 32 µg/disc, 100 g/ha [6]: 100%
- mortality at 500 g/ha [13]: 100%
- mortality at 500 g/ha [7]: 100%
- mortality at 100 g/ha [8]: 100%
